Experimental data published in patent US11969433B2, “Compositions and methods for muscle regeneration using prostaglandin E2” (The Board of Trustees of the Leland Stanford Junior …, priority 2016, dated 2024).

What was measured:
[1] = test system: MuSCs; assay: Quantitative RT-PCR of MuSC transcripts; type: cell-based, mouse
Source text: We isolated RNA from MuSCs using the RNeasy Micro Kit (Qiagen). For muscle samples, we snap froze the tissue in liquid nitrogen, homogenized the tissues using a mortar and pestle, followed by syringe and needle trituration, and then isolated RNA using Trizol (Invitrogen). We reverse-transcribed cDNA from total mRNA from each sample using the SensiFAST™ cDNA Synthesis Kit (Bioline). We subjected cDNA to RT-PCR using SYBR Green PCR Master Mix (Applied Biosystems) or TaqMan Assays (Applied Biosystems) in an ABI 7900HT Real-Time PCR System (Applied Biosystems). We cycled samples at 95° C. for 10 min and then 40 cycles at 95° C. for 15 s and 60° C. for 1 min. To quantify relative transcript levels, we used 2-ΔΔCt to compare treated and untreated samples and expressed the results relative to Gapdh. For SYBR Green qRT-PCR, we used the following primer sequences: Gapdh. forward 5′-[…]-3′ (SEQ ID NO: 1), reverse 5′-CCCTTTTGGCTCCACCCT-3′ (SEQ ID NO: 2); Hpgd, forward 5′-[…]-3′ (SEQ ID NO: 3), reverse 5′-[…]-3′ (SEQ ID NO: 4); Ptges, forward 5′-GCTGTCATCACAGGCCAGA-3′ (SEQ ID NO: 5), reverse 5′-[…]-3′ (SEQ ID NO: 6); Ptges2, forward 5′-[…]-3′ (SEQ ID NO: 7), reverse 5′-[…]-3′ (SEQ ID NO: 8); Ptger1, forward 5′ GTGGTGTCGTGCATCTGCT-3′ (SEQ ID NO: 9), reverse, 5′ […]-3′ (SEQ ID NO: 10), and Ptger2, forward 5′-[…]-3′ (SEQ ID NO: 11), reverse 5′-[…]-3′ (SEQ ID NO: 12). TaqMan Assays (Applied Biosystems) were used to quantify Pax7. Myogenin. Slco2a1 (PGT), Ptger3 and Ptger4 in samples according to the manufacturer instructions with the TaqMan Universal PCR Master Mix reagent kit (Applied Biosystems). Transcript levels were expressed relative to Gapdh levels. For SYBR Green qPCR, Gapdh qPCR was used to normalize input cDNA samples. For Taqman qPCR, multiplex qPCR enabled target signals (FAM) to be normalized individually by their internal Gapdh signals (VIC).

[2] = test system: MuSCs; assay: MuSC proliferation in charcoal stripped serum medium; type: cell-based, mouse; details: PGE2 10 ng/ml every two days, 7 days
Protocol: Following isolation, we resuspended MuSCs in myogenic cell culture medium containing DMEM/F10 (50:50), 15% FBS, 2.5 ng ml^−1 fibroblast growth factor-2 (FGF-2 also known as bFGF) and 1% penicillin-streptomycin. We seeded MuSC suspensions at a density of 500 cells per cm^2 surface area. We maintained cell cultures at 37° C. in 5% CO2 and changed medium daily. […]
To assay proliferation, we used three different assays (hemocytometer, VisionBlue, and EdU). […] For hemocytometer cell number count, we collected cells at indicated timepoints by incubation with 0.5% trypsin in PBS for 5 min at 37° C. and quantified them using a hemocytometer at least 3 times. Additionally, we used the VisionBlue Quick Cell Viability Fluorometric Assay Kit (BioVision, catalog #K303) as a readout for cell growth in culture. Briefly, we incubated MuSCs with 10% VisionBlue in culture medium for 3 h, and measured fluorescence intensity on a fluorescence plate reader (Infinite M1000 PRO, Tecan) at Ex=530-570 nm, Em=590-620 nm. […] We quantified EdU positive cells using the MetaMorph Image Analysis software (Molecular Devices). Data analyses were blinded, where researchers performing cell scoring were unaware of the treatment condition given to sample groups analyzed.

[3] = test system: gastrocnemius muscles; assay: Specific twitch force after treadmill run to exhaustion, aged mice (Example 2); type: in vivo, mouse; details: aged mice 18 months, 3 nM PGE2 after each of 10 daily runs, 4 weeks after last run
Protocol: The aged mice (18 months old) were subject to treadmill run to exhaustion daily for 10 days. The treadmill run was performed using the Exer3/6 (Columbus Instruments). Mice ran on the treadmill at 20 degrees downhill, starting at a speed of 10 meters/min. After 3 min, the speed was increased 1 meter/min to a final speed of 20 meters/min. Exhaustion was defined as the inability of the animal to remain on the treadmill despite electrical prodding. 2 h after each treadmill run, both gastrocnemius muscles of each mouse were injected with either PBS (control group) or 3 nM PGE2 (experimental group). The force measurement was performed 4 weeks after the last treadmill run using a […]-LR force transducer (Aurora Scientific) with a single 0.1 ms pulse at predetermined supramaximal stimulation intensity. The muscle force and synchronization pulses were recorded via a PCI-6251 acquisition card (National Instruments) and analyzed using Matlab. FIGS. 4O-4P show the specific muscle force values that were calculated by normalizing the force measurements with the muscle physiological cross-sectional area. […] Five repetitive measurements were made from each muscle. N=4 for the control group and n=5 for the PGE2 injected group. ** represents a statistical significant value of p<0.005 by 2-tailed Mann Whitney test.

CCCCC[C@H](O)/C=C/[C@H]1[C@H](O)CC(=O)[C@@H]1C/C=C\CCCC(=O)O [PGE2, prostaglandin E2]
transcript levels of Ptger1 and Ptger4 ([1]; after 24 hr PGE2 treatment of MuSCs): upregulated
Pax7 expression in aged MuSCs ([1]; aged MuSCs, 1-day pulse): maintenance
proliferation of aged MuSCs in charcoal stripped serum medium ([2]; aged MuSCs): rescued
division of growth arrested MuSCs in charcoal stripped serum medium ([2]; young MuSCs): divided
specific twitch force of gastrocnemius muscles [3]: increase
